The target of data set [1] is MAO-B (Mus musculus (Mouse), UniProt Q8BW75). The data set is described as follows: In vivo MAO-B inhibition in mice after a single i.p. injection. The settings on record: one hour later. How it is done:
For the MAO-inhibition study, mice (6 mice in each group) were injected intraperitoneally (i.p.) with compound 3 at the dosage of 5 or 10 mg/kg; or with M30 at the dosage of 10 mg/kg. Control mice received saline (0.1 mL) i.p. One hour later the mice were killed by cervical dislocation, while striatum and small intestine were removed rapidly and frozen in liquid nitrogen for further analysis. FIGS. 3 and 4 show MAO-A/MAO-B in vivo activity of compound 3 compared to the activity of M30. FIG. 3 presents an MAO inhibition in striatum, and FIG. 4 presents an MAO inhibition in intestine. The percent inhibition was computed based on comparison to control animals.

In data set [2] the test system is HepG2 cells. Kind of data set: Cytotoxicity in presence and absence of exogenous iron, HepG2. The data set is classed as cell-based, human. How it is done:
The potential of compound 3 to be toxic in the presence of free iron was also tested. The iron complexation method was based on the method of Leanderson and Tagesson (Carcinogenesis, 17, 545-550, 1996) with some modifications. Iron (III) was prepared from ferric ammonium citrate (Sigma, F5879) at 80 mM in sterile distilled water. Compound 3 was prepared at a 200 mM concentration in DMSO. Before each experiment, the freshly prepared iron (III) solution was diluted to 0.4 mM in PBS II (PBS containing 0.90 mM Ca^2+ and 0.49 mM Mg^2+). Compound 3 stock solutions were diluted to 2, 0.2, and 0.02 mM with PBS II. Equal volumes of the 0.4 mM iron (III) solution and compound 3 solutions were added together to prepare iron/test article complex solutions containing 1, 0.1, and 0.01 mM compound 3 and 0.2 mM iron (III). The compound 3 DMSO stock solution was diluted in PBS II at 1, 0.1, or 0.01 mM and used as compound 3 control without iron. An equal volume of the 0.4 mM iron (III) solution was diluted in PBS II to prepare a control containing only iron.
The medium was removed from the plated cells (both cell lines) and replaced with fresh medium (90 μL). Iron/compound 3 complex or compound 3 in PBS II without iron was added to cells in triplicate (10 μL) to final compound 3 concentrations of 100, 10, and 1 μM and an iron (III) concentration of 20 μM. Wells containing no cells were used as the background control. PBS II was run as vehicle control. Iron only was run at a final concentration of 20 μM.
Cell viability was determined as described above and cytotoxicity was compared between treatments with and without iron complexation.

Each structure is given as a SMILES string.

MAO-B, sequence (Q8BW75 whole entry): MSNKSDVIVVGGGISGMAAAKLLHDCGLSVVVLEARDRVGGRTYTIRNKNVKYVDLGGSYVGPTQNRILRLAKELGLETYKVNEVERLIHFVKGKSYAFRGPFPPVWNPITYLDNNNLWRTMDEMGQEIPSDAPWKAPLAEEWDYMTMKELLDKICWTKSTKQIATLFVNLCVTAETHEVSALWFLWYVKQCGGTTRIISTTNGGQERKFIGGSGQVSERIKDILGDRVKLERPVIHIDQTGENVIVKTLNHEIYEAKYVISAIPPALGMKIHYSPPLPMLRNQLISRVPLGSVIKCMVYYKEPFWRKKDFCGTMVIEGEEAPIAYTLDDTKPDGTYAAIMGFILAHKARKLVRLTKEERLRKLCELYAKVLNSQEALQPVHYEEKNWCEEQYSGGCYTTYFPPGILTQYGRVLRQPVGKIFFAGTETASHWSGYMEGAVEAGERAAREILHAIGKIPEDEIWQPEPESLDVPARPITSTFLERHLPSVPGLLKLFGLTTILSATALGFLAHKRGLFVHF

On to `C#CCN(C)CCc1ccc(O)c2ncccc12` [Compound 3, 5-[2-(methyl-2-propyn-1-ylamino)ethyl]-8-quinolinol], for which, in data set [1] (5 or 10 mg/kg), the “MAO-B inhibition in striatum” value is “inhibited in a dose responsive fashion”. In data set [1] (small intestine), the “MAO-B inhibition in intestine” value is on record as “Reduced inhibition in the intestinal tissue versus striatal tissue”. Besides, the “HepG2 cell death (%)” value in data set [2] (with iron (20 μM), compound 1 μM) is listed as 4.8%; in data set [2] (with iron (20 μM), compound 10 μM), 11.9%; in data set [2] (with iron (20 μM), compound 100 μM) it was 99.5%; in data set [2] (without iron, compound 1 μM) it was −0.1%; in data set [2] (without iron, compound 10 μM), −0.7%; in data set [2] (without iron, compound 100 μM) it was −3.6%.

For the origin of these results see US9034303B2, “Neuroprotective and neuro-restorative iron chelators and monoamine oxidase inhibitors and uses thereof” (priority 2010, dated 2015).
